Results from US12035716B2, “Treatment for seeds disinfection” (VILMORIN & CIE, priority 2013, dated 2024).
Where two headings read alike, the source gives them in different places.

Tested on: CGMMV
Settings: 1.33% solution, VI disinfection; for Seed health lab results, ELISA average count: cut-off 0.130, untreated 0.841
Procedure: In this case, a commercial cucumber seed lot (2 kg) naturally infected by CGMMV was treated. The infected seeds were put into a reactor containing 20 liters of Na-Dichloroisocyanurate at 1.33%. The vacuum/de-vacuum cycles (i.e. vacuum infiltration) were applied gradually starting at 500 mbar and increased by 50 mbar each cycle up to the maximum of 985 mbar. Then we continued vacuum/de-vacuum cycles at maximum vacuum pressure of 985 mbar for a total of 30 cycles. […] Both fractions were separately collected. This process took 45 minutes. CGMMV was tested by ELISA assay according to method 7-026 of the international rules for seed testing annex to chapter 7: seed health testing methods; International Seed Testing Association, Zurich, Switzerland, 2010.

O=c1nc([O-])n(Cl)c(=O)n1Cl.[Na+] [Na-Dichloroisocyanurate]
Remarks (seed health) (floating fraction (5%)): Contami-
Seed health lab results, Positive/total replicates (floating fraction (5%)): 9/10
Seed health lab results, ELISA average count (floating fraction (5%)): 0.543
Remarks (seed health) (sinking fraction (95%)): Clean
Seed health lab results, Positive/total replicates (sinking fraction (95%)): 0/30
Seed health lab results, ELISA average count (sinking fraction (95%)): 0.081
